# Measured values taken from patent publication EP0835868A1, “2-Aryl-3-aminoaryloxynaphthyl compounds, intermediates, compositions and methods” (ELI LILLY AND COMPANY, priority 1996, dated 1998).
# Structures can show the parent of a compound that is named as a salt. Marks after values point to notes of the source that are not given here.
# Key:
# [1] = system: female Sprague Dawley rats; test: Estrogen deprivation model in ovariectomized rats: wet uterine weight; format: in vivo; settings: daily for 4 days, OVX rats, % increase versus the ovariectomized controls
# Method: (§1) In the examples illustrating the methods, an estrogen deprivation model was used in which effects of different treatments upon circulating lipids were determined.
# (§2) Seventy-five day old female Sprague Dawley rats (weight range of 200 to 225g) are obtained from Charles River Laboratories (Portage, MI). The animals are either bilaterally ovariectomized (OVX) or exposed to a Sham surgical procedure at Charles River Laboratories, and then shipped after one week. Upon arrival, they are housed in metal hanging cages in groups of 3 or 4 per cage and have ad libitum access to food (calcium content approximately 0.5%) and water for one week. Room temperature is maintained at 22.2° ± 1.7° C with a minimum relative humidity of 40%. The photoperiod in the room is 12 hours light and 12 hours dark. Dosing Regimen Tissue Collection. After a one week acclimation period (therefore, two weeks post-OVX) daily dosing with test compound is initiated. 17a-ethynyl estradiol or the test compound are given orally, unless otherwise stated, as a suspension in 1% carboxymethylcellulose or dissolved in 20% cyclodextrin. Animals are dosed daily for 4 days. Following the dosing regimen, animals are weighed and anesthetized with a ketamine: Xylazine (2:1, V:V) mixture and a blood sample is collected by cardiac puncture. The animals are then sacrificed by asphyxiation with CO2, the uterus is removed through a midline incision, and a wet uterine weight is determined.
# Eosinophil peroxidase = test: Uterine Eosinophil Peroxidase (EPO) Assay on uteri of dosed ovariectomized rats; format: in vivo, Sprague Dawley rats; settings: daily for 4 days, OVX rats
# Text: as §2
# (§3) Cholesterol Analysis. Blood samples are allowed to clot at ambient temperature for 2 hours, and serum is obtained following centrifugation for 10 minutes at 3000 rpm. Serum cholesterol is determined using a Boehringer Mannheim Diagnostics high performance cholesterol assay. Briefly, the cholesterol is oxidized to cholest-4-en-3-one […]. The hydrogen peroxide is then reacted with phenol and 4-aminophenazone in the presence of peroxidase to produce a p-quinone imine dye, which is read spectrophotemetrically at 500 nm. Cholesterol concentration is then calculated against a standard curve. The entire assay is automated using a Biomek Automated Workstation. Uterine Eosinophil Peroxidase (EPO) Assay. Uteri are kept at 4° C until time of enzymatic analysis. The uteri are then homogenized in 50 volumes of 50 mM Tris buffer (pH - 8.0) containing 0.005% Triton X-100. Upon addition of 0.01% hydrogen peroxide and 10 mM O-phenylenediamine (final concentrations) in Tris buffer, increase in absorbance is monitored for one minute at 450 nm. The presence of eosinophils in the uterus is an indication of estrogenic activity of a compound. The maximal velocity of a 15 second interval is determined over the initial, linear portion of the reaction curve. Source of Compound: 17a-ethynyl estradiol was obtained from Sigma Chemical Co., St. Louis, MO.
# [2] = system: female Sprague Dawley rats; test: Estrogen deprivation model in ovariectomized rats: serum cholesterol analysis; format: in vivo; settings: daily for 4 days, OVX rats, decrease versus ovariectomized controls
# Method: as §1, §2, §3
SMILES,Uterine Weight (% Inc.) ([1]; 0.01 mg/kg PO),Uterine Weight (% Inc.) ([1]; 0.1 mg/kg PO),Uterine Weight (% Inc.) ([1]; 1.0 mg/kg PO),Uterine Eosinophil (Vmax) (Eosinophil peroxidase; 0.01 mg/kg PO),Uterine Eosinophil (Vmax) (Eosinophil peroxidase; 0.1 mg/kg PO),Uterine Eosinophil (Vmax) (Eosinophil peroxidase; 1.0 mg/kg PO),Serum Cholesterol (% Dec.) ([2]; 0.01 mg/kg PO),Serum Cholesterol (% Dec.) ([2]; 0.1 mg/kg PO),Serum Cholesterol (% Dec.) ([2]; 1.0 mg/kg PO),Uterine Weight (% Inc.) ([1]; 10.0 mg/kg PO),Uterine Eosinophil (Vmax) (Eosinophil peroxidase; 10.0 mg/kg PO),Serum Cholesterol (% Dec.) ([2]; 10.0 mg/kg PO)
"Oc1ccc(-c2ccc3cc(O)ccc3c2Oc2ccc(NCCN3CCCCC3)cc2)cc1 [Example 4, 1-[4-[2-(1-Piperidinyl)ethylamino]phenoxy]-2-(4-hydroxyphenyl)-6-hydroxynaphthalene]",7.1,39.8* % Inc.,25.4 % Inc.,2.7,4.5,5.4,20.8* % Dec.,59.9* % Dec.,75.3* % Dec.,,,
"C#C[C@]1(O)CC[C@H]2[C@@H]3CCc4cc(O)ccc4[C@H]3CC[C@@]21C [EE2, 17-a-Ethynyl-estradiol, reference compound]",,96.0* % Inc.,,,54.6*,,,75.9* % Dec.,,,,
"O=C(CN1CCCCC1)Nc1ccc(Oc2c(-c3ccc(O)cc3)ccc3cc(O)ccc23)cc1 [Example 2, 1-[4-[2-(1-Piperidinyl)acetylamido]phenoxy-2-(4-hydroxyphenyl)-6-hydroxynaphthalene Hydrochloride]",,13.6 % Inc.,59.0* % Inc.,,1.8,11.7,,27 % Dec.,66.4* % Dec.,107.0* % Inc.,71.1*,57.6* % Dec.
